The source of these data is publication PMC10020809, “A Phase Ib/II Study of WNT974 + Encorafenib + Cetuximab in Patients With BRAF ^V600E-Mutant KRAS Wild-Type Metastatic Colorectal Cancer” (The Oncologist, 2023).

Marks after values point to notes of the source that are not given here.

Series [1] is described as follows: Plasma pharmacokinetics, noncompartmental. Format: in vivo, human. Particulars: for t 1/2 / AUC(0-t) / AUC / Cmax / half-life: mean (SD); for AUC(0-t) / AUC / Cmax / half-life / Tmax: human, plasma, oral. How it is done: To assess plasma concentrations of WNT974, its active metabolite LHA333, and encorafenib, serial blood samples were collected on days 1 and 15 of cycle 1, and pre-dose blood samples were collected on days 2, 8, 16, and 22 of cycle 1, and on day 1 of cycles 2, 3, and 4. PK parameters were determined using noncompartmental methods. The PK analysis set included all patients with at least one available valid PK concentration measurement who received at least one dose of study drug.

Series [2] has as its system patients with advanced solid tumors. Also on record: method as in PMID 33941878. Particulars: cited from earlier work.
Series [3] deals with patients with BRAF V600E-mutant mCRC with RNF43 mutations or RSPO fusions. Description: Safety: adverse events (CTCAE v4.03), phase Ib. Particulars: human, in vivo. How it is done:
Patients who developed hypercalcemia (any grade) were treated with bisphosphonates per institutional standards.
The primary endpoints of the phase Ib study were the incidence of DLTs and exposure to WNT974 and encorafenib as measured by PK parameters. A DLT was defined as an AE or abnormal laboratory value assessed as unrelated to disease, disease progression, intercurrent illness, or concomitant medications that occurred within the first 28 days of treatment with WNT974 + encorafenib + cetuximab. The secondary endpoints for this study included the objective response rate (ORR; RECIST 1.1), disease control rate (DCR), and frequency and severity of AEs (Common Terminology Criteria for Adverse Events v4.03).
Tumor assessments were performed at baseline (screening) and every 6 weeks after starting study treatment until disease progression, initiation of subsequent antineoplastic therapy, or death, whichever occurred first. End-of-treatment tumor assessment was conducted within 14 days of receiving the last dose or treatment discontinuation. Safety was assessed throughout the study and included physical examinations, vital signs, weight, performance status evaluation, laboratory evaluations, dermatologic evaluations, ophthalmological examinations, bone loss assessments, cardiac assessments, and documentation of all non-serious and serious AEs (SAEs). […]

Series [4] relates to CRC preclinical models. More on the design: method as in PMID 31233627, PMID 28695896, PMID 23847203. Particulars: in vitro and in vivo; cited from earlier work.
Series [5] has as its system patients with advanced solid tumors; HER2-negative breast cancer or pancreatic cancer. Particulars: in vivo; cited from earlier work.
Where [6] appears, read: 200 mg, All cohorts, encorafenib 200 mg once daily, day 15 of cycle 1, plasma.
The mark [7] stands for this setting: COMBO5, day 15 of cycle 1, plasma.
Setting [8] is: COMBO7.5, day 15 of cycle 1, plasma.
Where [9] appears, read: COMBO10, day 15 of cycle 1, plasma.

As a reminder, the AUC(0-t) is the area under the concentration-time curve up to a stated or last time point. As a reminder, the AUC is concentration integrated over time. Low readings indicate less exposure, high ones more exposure. Usually Cmax stands for the highest concentration seen after dosing. Usually half-life stands for the time needed for the level to fall by half in the phase considered. Lower therefore signals rapid decline. Usually Tmax stands for the time at which the peak concentration occurs. For the molecule `COC(=O)N[C@@H](C)CNc1nccc(-c2cn(C(C)C)nc2-c2cc(Cl)cc(NS(C)(=O)=O)c2F)n1` [Encorafenib, encorafenib], the “t 1/2” value in series [1] (All cohorts, encorafenib 200 mg once daily, day 15 of cycle 1, plasma) is given as 4.29 (2.42)^b h. For the same molecule, in series [1] (All cohorts, encorafenib 200 mg once daily, day 15 of cycle 1, plasma, median (range)), the T max is listed as 1.95 (0.48-7.17) h. Further, the “Mean AUC and maximum plasma drug concentration across treatment combinations” value in series [1] (day 15 of cycle 1) is listed as “generally comparable across all treatment combinations”. In series [1] (200 mg, All cohorts (N = 17), encorafenib 200 mg once daily, day 15 of cycle 1, plasma), this molecule displayed an AUC(0-t) of 13700 ng·h/mL. In series [1] (setting [6]), the area under the curve (AUC) worked out at 13800 ng·h/mL, the Cmax is 2840 ng/mL and the half-life is 4.3 h. Besides, in series [1] (200 mg, All cohorts, encorafenib 200 mg once daily, day 15 of cycle 1, plasma, median (range)), the time of peak concentration (Tmax) is approximately 2 h.

For the molecule `Cc1cc(-c2ncc(CC(=O)Nc3ccc(-c4cnccn4)cn3)cc2C)ccn1` [WNT974], in series [2] (across all doses), the “AE frequency: decreased appetite” value is given as 45.7%, the “AE frequency: dysgeusia” value was 50%, the “AE frequency: fatigue” value is 31.9% and the “AE frequency: nausea” value is 33.0%. Besides, in series [2] (across all doses), the “AE frequency: vomiting” value is reported as 30.9%. In series [2], the “Bone-related toxicities considered related to the study treatment” value is reported as 5, the “Number of bone-related toxicities” value was 7 and the “Patients who experienced bone-related toxicities” value was 6 patients. Also, in series [1] (setting [7]), the “t 1/2” value is reported as 4.74 (2.17) h, the exposure (AUC) turned out to be 227 ng·h/mL, the maximum concentration (Cmax) was 51 ng/mL and the half-life was 4.7 h. Besides, in series [1] (setting [8]), the “t 1/2” value was 5.37 (0.697) h, the exposure (AUC) turned out to be 384 ng·h/mL, the highest concentration (Cmax) stood at 93.4 ng/mL and the half-life was 5.4 h. Further, the “Dose dependence of mean AUC” value in series [1] (WNT974 5, 7.5, 10 mg, day 15 of cycle 1) was “increased in a dose-proportional manner”. The AUC(0-t) in series [1] (COMBO5 (5 mg WNT974 once daily + encorafenib + cetuximab), day 15 of cycle 1, plasma) is 220 ng·h/mL. The Tmax in series [1] (COMBO5, day 15 of cycle 1, plasma, median (range)) came out at 1 h. For the same molecule, the AUC(0-t) in series [1] (COMBO7.5 (7.5 mg WNT974 once daily + encorafenib + cetuximab), day 15 of cycle 1, plasma) came out at 384 ng·h/mL. In addition, in series [1] (COMBO7.5, day 15 of cycle 1, plasma, median (range)), the Tmax is 1.02 h. Further, in series [1] (COMBO10 (10 mg WNT974 once daily + encorafenib + cetuximab), day 15 of cycle 1, plasma), the exposure AUC(0-t) worked out at 460 ng·h/mL. In series [1] (setting [9]), this molecule gave an AUC of 542 ng·h/mL, a Cmax of 42.9 ng/mL and a half-life of 11 h. The Tmax in series [1] (COMBO10, day 15 of cycle 1, plasma, median (range)) stood at 4 h. Also, in series [3], the “Reported serious AEs of bone fracture” value stood at 6. Also, in series [4], the Anti-tumor activity result was “demonstrated anti-tumor activity”.

B1: vantictumab: an anti-Frizzled antibody, given with chemotherapy (antibody, chains of the INN, looked up, V domains shown)
VH: EVQLVESGGGLVQPGGSLRLSCAASGFTFSHYTLSWVRQAPGKGLEWVSVISGDGSYTYYADSVKGRFTISSDNSKNTLYLQMNSLRAEDTAVYYCARNFIKYVFANWGQGTLVTVSS
VL: DIELTQPPSVSVAPGQTARISCSGDNIGSFYVHWYQQKPGQAPVLVIYDKSNRPSGIPERFSGSNSGNTATLTISGTQAEDEADYYCQSYANTLSLVFGGGTKLTVL
As to B1, the “Tolerability / bone safety in phase I trials” value in series [5] is given as “closed early due to high rates of bone fracture”.
